Data: ChEMBL document CHEMBL4308841, “Synthesis, in vitro antiproliferative activity, and kinase inhibitory effects of pyrazole-containing diarylureas and diarylamides” (Eur J Med Chem, 2018)

Experiments:
NCI-H522 = assay: Growth inhibition of human NCI-H522 cells incubated for 48 hrs by sulforhodamine B assay; format: functional, cell-based; details: NCI-H522, 48 h
MOLT-4 = assay: Growth inhibition of human MOLT4 cells assessed as cell growth at 0.01 uM incubated for 48 hrs by sulforhodamine B assay relative to control; format: functional; details: MOLT-4, 48 h, read-out: Activity
SN12C = assay: Growth inhibition of human SN12C cells assessed as cell growth at 1 uM incubated for 48 hrs by sulforhodamine B assay relative to control; format: functional; details: read-out: Activity
HCT-15 = assay: Growth inhibition of human HCT15 cells assessed as cell growth at 0.1 uM incubated for 48 hrs by sulforhodamine B assay relative to control; format: functional; details: HCT-15, 48 h, read-out: Activity
UACC-62 [1] = assay: Growth inhibition of human UACC62 cells assessed as cell growth at 0.1 uM incubated for 48 hrs by sulforhodamine B assay relative to control; format: functional; details: UACC-62, 48 h, read-out: Activity
UACC-62 [2] = assay: Growth inhibition of human UACC62 cells assessed as cell growth at 0.01 uM incubated for 48 hrs by sulforhodamine B assay relative to control; format: functional; details: UACC-62, 48 h, read-out: Activity
NCI-H322M = assay: Growth inhibition of human NCI-H322M cells incubated for 48 hrs by sulforhodamine B assay; format: functional, cell-based
HL-60(TB) = assay: Growth inhibition of human HL-60(TB) cells assessed as cell growth at 0.1 uM incubated for 48 hrs by sulforhodamine B assay relative to control; format: functional; details: HL-60, 48 h, read-out: Activity
BT-549 = assay: Growth inhibition of human BT549 cells assessed as cell growth at 0.1 uM incubated for 48 hrs by sulforhodamine B assay relative to control; format: functional; details: BT-549, 48 h, read-out: Activity
Malme-3M = assay: Growth inhibition of human MALME-3M cells incubated for 48 hrs by sulforhodamine B assay; format: functional, cell-based
RXF 393 [3] = assay: Growth inhibition of human RXF393 cells assessed as cell growth at 100 uM incubated for 48 hrs by sulforhodamine B assay relative to control; format: functional; details: RXF 393, 48 h, read-out: Activity
SK-OV-3 = assay: Growth inhibition of human SKOV3 cells assessed as cell growth at 100 uM incubated for 48 hrs by sulforhodamine B assay relative to control; format: functional; details: SK-OV-3, 48 h, read-out: Activity
K562 [4] = assay: Growth inhibition of human K562 cells assessed as cell growth at 0.1 uM incubated for 48 hrs by sulforhodamine B assay relative to control; format: functional; details: K562, 48 h, read-out: Activity
786-0 = assay: Growth inhibition of human 786-0 cells assessed as cell growth at 0.1 uM incubated for 48 hrs by sulforhodamine B assay relative to control; format: functional; details: 786-0, 48 h, read-out: Activity
RXF 393 [5] = assay: Growth inhibition of human RXF393 cells incubated for 48 hrs by sulforhodamine B assay; format: functional, cell-based; details: RXF 393, 48 h
NCI/ADR-RES = assay: Growth inhibition of human NCI/ADR-RES cells incubated for 48 hrs by sulforhodamine B assay; format: functional, cell-based
MDA-MB-231 = assay: Growth inhibition of human MDA-MB-231 cells assessed as cell growth at 1 uM incubated for 48 hrs by sulforhodamine B assay relative to control; format: functional; details: MDA-MB-231, 48 h, read-out: Activity
HOP-62 = assay: Growth inhibition of human HOP62 cells assessed as cell growth at 100 uM incubated for 48 hrs by sulforhodamine B assay relative to control; format: functional; details: HOP-62, 48 h, read-out: Activity
ACHN = assay: Growth inhibition of human ACHN cells incubated for 48 hrs by sulforhodamine B assay; format: functional, cell-based
SK-MEL-28 = assay: Growth inhibition of human SK-MEL-28 cells assessed as cell growth at 0.01 uM incubated for 48 hrs by sulforhodamine B assay relative to control; format: functional; details: SK-MEL-28, 48 h, read-out: Activity
Hs-578T = assay: Growth inhibition of human Hs578T cells assessed as cell growth at 0.01 uM incubated for 48 hrs by sulforhodamine B assay relative to control; format: functional; details: read-out: Activity
LOX IMVI = assay: Growth inhibition of human LOXIMVI cells assessed as cell growth at 100 uM incubated for 48 hrs by sulforhodamine B assay relative to control; format: functional; details: read-out: Activity
K562 [6] = assay: Growth inhibition of human K562 cells assessed as cell growth at 100 uM incubated for 48 hrs by sulforhodamine B assay relative to control; format: functional; details: K562, 48 h, read-out: Activity
UO-31 [7] = assay: Growth inhibition of human UO31 cells assessed as cell growth at 1 uM incubated for 48 hrs by sulforhodamine B assay relative to control; format: functional; details: UO-31, 48 h, read-out: Activity
SW-620 = assay: Growth inhibition of human SW620 cells assessed as cell growth at 100 uM incubated for 48 hrs by sulforhodamine B assay relative to control; format: functional; details: SW-620, 48 h, read-out: Activity
UO-31 [8] = assay: Growth inhibition of human UO31 cells incubated for 48 hrs by sulforhodamine B assay; format: functional, cell-based; details: UO-31, 48 h
UACC-257 = assay: Growth inhibition of human UACC257 cells assessed as cell growth at 100 uM incubated for 48 hrs by sulforhodamine B assay relative to control; format: functional; details: UACC-257, 48 h, read-out: Activity
RXF 393 [9] = assay: Growth inhibition of human RXF393 cells assessed as cell growth at 0.01 uM incubated for 48 hrs by sulforhodamine B assay relative to control; format: functional; details: RXF 393, 48 h, read-out: Activity
HT-29 = assay: Growth inhibition of human HT-29 cells assessed as cell growth at 10 uM incubated for 48 hrs by sulforhodamine B assay relative to control; format: functional; details: HT-29, 48 h, read-out: Activity
OVCAR-8 = assay: Growth inhibition of human OVCAR8 cells assessed as cell growth at 0.01 uM incubated for 48 hrs by sulforhodamine B assay relative to control; format: functional; details: OVCAR-8, 48 h, read-out: Activity
[10] = read-out: LC50 (the source's name)
[11] = read-out: pLC50 (the source's name) (converted)

## COc1cc(Cl)cc(-c2nn(-c3cccc(NC(=O)c4cccc(C(F)(F)F)c4)c3)cc2-c2ccncc2)c1
NCI-H522; read-out: GI50
  GI50: 1.9 µM
NCI-H522; [10]
  CC50: > 100 µM
NCI-H522; read-out: TGI
  TGI: > 100 µM
NCI-H522; read-out: pGI50 (converted)
  GI50: 2 µM
NCI-H522; [11]
  CC50: > 100 µM
NCI-H522; read-out: pTGI (converted)
  TGI: > 100 µM
MOLT-4
  growth at 0.01 µM: 91%
SN12C
  growth at 1 µM: 58%
HCT-15
  growth at 0.1 µM: 91%
UACC-62 [1]
  growth at 0.1 µM: 94%
UACC-62 [2]
  growth at 0.01 µM: 98%
NCI-H322M; read-out: GI50
  GI50: > 100 µM
NCI-H322M; [10]
  CC50: > 100 µM
NCI-H322M; read-out: TGI
  TGI: > 100 µM
NCI-H322M; read-out: pGI50 (converted)
  GI50: > 100 µM
NCI-H322M; [11]
  CC50: > 100 µM
NCI-H322M; read-out: pTGI (converted)
  TGI: > 100 µM
HL-60(TB)
  growth at 0.1 µM: 90%
BT-549
  growth at 0.1 µM: 94%
Malme-3M; read-out: GI50
  GI50: > 100 µM
Malme-3M; [10]
  CC50: > 100 µM
Malme-3M; read-out: TGI
  TGI: > 100 µM
Malme-3M; read-out: pGI50 (converted)
  GI50: > 100 µM
Malme-3M; [11]
  CC50: > 100 µM
Malme-3M; read-out: pTGI (converted)
  TGI: > 100 µM
RXF 393 [3]
  growth at 100 µM: 19%
SK-OV-3
  growth at 100 µM: 78%
K562 [4]
  growth at 0.1 µM: 112%
786-0
  growth at 0.1 µM: 97%
RXF 393 [5]
  LC50: > 100 µM
RXF 393 [5]; read-out: GI50
  GI50: 1.57 µM
RXF 393 [5]; read-out: TGI
  TGI: > 100 µM
RXF 393 [5]; read-out: pGI50 (converted)
  GI50: 1.86 µM
RXF 393 [5]; read-out: pTGI (converted)
  TGI: > 100 µM
NCI/ADR-RES; read-out: GI50
  GI50: 5.38 µM
NCI/ADR-RES; [10]
  CC50: > 100 µM
NCI/ADR-RES; read-out: TGI
  TGI: > 100 µM
NCI/ADR-RES; read-out: pGI50 (converted)
  GI50: 5.37 µM
NCI/ADR-RES; [11]
  CC50: > 100 µM
NCI/ADR-RES; read-out: pTGI (converted)
  TGI: > 100 µM
MDA-MB-231
  growth at 1 µM: 58%
HOP-62
  growth at 100 µM: 83%
ACHN; read-out: GI50
  GI50: 7.21 µM
ACHN; [10]
  CC50: > 100 µM
ACHN; read-out: TGI
  TGI: > 100 µM
ACHN; read-out: pGI50 (converted)
  GI50: 7.24 µM
ACHN; [11]
  CC50: > 100 µM
ACHN; read-out: pTGI (converted)
  TGI: > 100 µM
SK-MEL-28
  growth at 0.01 µM: 105%
Hs-578T
  growth at 0.01 µM: 97%
LOX IMVI
  growth at 100 µM: 41%
K562 [6]
  growth at 100 µM: 32%
UO-31 [7]
  growth at 1 µM: 54%
SW-620
  growth at 100 µM: 57%
UO-31 [8]
  IC50: 2.71 µM
UO-31 [8]; read-out: GI50
  GI50: 2.71 µM
UO-31 [8]; [10]
  CC50: > 100 µM
UO-31 [8]; read-out: TGI
  TGI: > 100 µM
UO-31 [8]; read-out: pGI50 (converted)
  GI50: 2.69 µM
UO-31 [8]; [11]
  CC50: > 100 µM
UO-31 [8]; read-out: pTGI (converted)
  TGI: > 100 µM
UACC-257
  growth at 100 µM: 52%
RXF 393 [9]
  growth at 0.01 µM: 58%
HT-29
  growth at 10 µM: 42.5%
OVCAR-8
  growth at 0.01 µM: 103%
